What follows are compounds tested against T1, SIRT1 (Homo sapiens, UniProt Q96EB6) (assay: Trp mass spectrometry assay of SIRT1 activation). Settings: Trp mass spectrometry assay; EC1.5 = concentration of test compound that results in 150% activation of SIRT1.
T1 sequence (Q96EB6 1-747): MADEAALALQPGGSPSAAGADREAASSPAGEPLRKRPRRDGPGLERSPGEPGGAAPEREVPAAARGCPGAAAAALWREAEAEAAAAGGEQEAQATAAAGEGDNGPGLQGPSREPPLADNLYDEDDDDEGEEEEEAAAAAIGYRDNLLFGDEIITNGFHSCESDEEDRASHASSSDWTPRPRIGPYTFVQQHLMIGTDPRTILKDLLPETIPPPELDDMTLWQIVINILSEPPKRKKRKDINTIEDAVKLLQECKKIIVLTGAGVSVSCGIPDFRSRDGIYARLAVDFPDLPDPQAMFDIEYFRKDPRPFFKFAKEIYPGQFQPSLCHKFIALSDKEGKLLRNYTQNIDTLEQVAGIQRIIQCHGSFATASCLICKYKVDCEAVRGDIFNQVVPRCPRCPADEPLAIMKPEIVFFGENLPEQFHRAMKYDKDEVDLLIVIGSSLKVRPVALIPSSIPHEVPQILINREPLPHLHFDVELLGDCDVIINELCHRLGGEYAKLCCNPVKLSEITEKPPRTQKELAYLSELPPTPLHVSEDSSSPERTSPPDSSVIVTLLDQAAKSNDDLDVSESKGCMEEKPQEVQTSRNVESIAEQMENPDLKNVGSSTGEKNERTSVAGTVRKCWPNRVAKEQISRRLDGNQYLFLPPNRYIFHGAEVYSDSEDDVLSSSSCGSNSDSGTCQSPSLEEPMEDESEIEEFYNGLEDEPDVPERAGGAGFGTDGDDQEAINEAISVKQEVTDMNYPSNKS
Assay type: biochemical
Procedure, shortened: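 N-terminal His-tagged human SIRT1 (10 nM, E. coli BL21(DE3)) with 0.5 μM Ac-RHKK(Ac)W-NH2 peptide and 120 μM βNAD+, 25 min at 25 °C in HEPES pH 7.5, formic acid stop. OAADPR or deacetylated peptide quantified by mass spectrometry; EC1.5 (50% activity increase over control) and Percent Maximum Activation reported.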

Tryp AVG EC1.5 (μM), A (A (EC1.5<1 μM)):
O=C(Nc1cccc(-c2cnco2)n1)N1c2nc(-c3cccc(C(F)(F)F)c3)ccc2N2CCC[C@H]1C2 [Example 590]
O=C(Nc1cc(-c2cnco2)ccn1)N1c2nc(-c3cccc(C(F)(F)F)c3)ccc2N2CCC[C@H]1C2 [Example 591]
CC(C)(C)OC(=O)N1CCC(c2cccc(NC(=O)N3c4nc(-c5cccc(C(F)(F)F)c5)ccc4N4CC[C@H]3C4)c2)C1 (stereo partly shown) [Example 592]
O=C(Nc1cccc(C2CCNC2)c1)N1c2nc(-c3cccc(C(F)(F)F)c3)ccc2N2CC[C@H]1C2 (stereo partly shown) [Example 593]
NC(=O)CN1CCC(c2cccc(NC(=O)N3c4nc(-c5cccc(C(F)(F)F)c5)ccc4N4CC[C@H]3C4)c2)C1 (stereo partly shown) [Example 594]
O=C(Nc1cc(-c2cnco2)ccn1)N1c2nc(-c3cccc(C(F)(F)F)c3)ccc2N2CCC1CC2 [Example 595]
O=C(Nc1cccc(-c2cnco2)n1)N1c2nc(-c3cccc(C(F)(F)F)c3)ccc2N2CCC1CC2 [Example 596]
O=C(Nc1ccccn1)N1c2nc(-c3cccc(C(F)(F)F)c3)ccc2N2C[C@@H](O)[C@H]1C2 [Example 601]
CC(C)(C)OC(=O)NCCn1cc(-c2cccc(NC(=O)N3c4nc(-c5cccc(C(F)(F)F)c5)ccc4N4CCC[C@H]3C4)c2)nn1 [Example 604]
CC(C)(C)OC(=O)NCc1cn(-c2cccc(NC(=O)N3c4nc(-c5cccc(C(F)(F)F)c5)ccc4N4CC[C@H]3C4)c2)nn1 [Example 605]
NCc1cn(-c2cccc(NC(=O)N3c4nc(-c5cccc(C(F)(F)F)c5)ccc4N4CC[C@H]3C4)c2)nn1 [Example 606]
O=C(CCCC[C@@H]1SC[C@@H]2NC(=O)N[C@@H]21)NCCCCCC(=O)NCc1cn(-c2cccc(NC(=O)N3c4nc(-c5cccc(C(F)(F)F)c5)ccc4N4CC[C@H]3C4)c2)nn1 [Example 607]
CC(C)(C)OC(=O)N1CCc2cc(NC(=O)N3c4nc(-c5cccc(C(F)(F)F)c5)ccc4N4CC[C@H]3C4)ccc2C1 [Example 611]
O=C(Nc1cccc(C(F)(F)F)c1)N1c2nc(-c3cccc(C(F)(F)F)c3)ccc2N2CC[C@H]1C2 [Example 617]
Cn1nccc1-c1cccc(NC(=O)N2c3nc(-c4cccc(C(F)(F)F)c4)ccc3N3CC[C@H]2C3)n1 [Example 623]

Tryp AVG EC1.5 (μM), B (B (EC1.5 1-25 μM)):
O=C(NCc1ccccc1)N1c2nc(-c3cccc(C(F)(F)F)c3)ccc2N2CC[C@H]1C2 [Example 597]
O=C(NCCc1ccccc1)N1c2nc(-c3cccc(C(F)(F)F)c3)ccc2N2CC[C@H]1C2 [Example 598]
O=C(NCCCc1ccccc1)N1c2nc(-c3cccc(C(F)(F)F)c3)ccc2N2CC[C@H]1C2 [Example 599]
O=C(NCCCCc1ccccc1)N1c2nc(-c3cccc(C(F)(F)F)c3)ccc2N2CC[C@H]1C2 [Example 600]
CC(=O)O[C@@H]1CN2C[C@H]1N(C(=O)Nc1ccccn1)c1nc(-c3cccc(C(F)(F)F)c3)ccc12 [Example 602]
CC(C)(C)OC(=O)N1CCc2ccc(NC(=O)N3c4nc(-c5cccc(C(F)(F)F)c5)ccc4N4CC[C@H]3C4)cc2C1 [Example 609]
CC(C)(C)OC(=O)N1CCCc2ccc(NC(=O)N3c4nc(-c5cccc(C(F)(F)F)c5)ccc4N4CC[C@H]3C4)cc21 [Example 610]
O=C(NCCCN1CCOCC1)N1c2nc(-c3cccc(C(F)(F)F)c3)ccc2N2CC[C@H]1C2 [Example 612]
O=C(NCCc1ccncc1)N1c2nc(-c3cccc(C(F)(F)F)c3)ccc2N2CC[C@H]1C2 [Example 613]
O=C(NCCc1ccccn1)N1c2nc(-c3cccc(C(F)(F)F)c3)ccc2N2CC[C@H]1C2 [Example 614]
O=C(NCCc1cccnc1)N1c2nc(-c3cccc(C(F)(F)F)c3)ccc2N2CC[C@H]1C2 [Example 615]
O=C(NCCN1CCOCC1)N1c2nc(-c3cccc(C(F)(F)F)c3)ccc2N2CC[C@H]1C2 [Example 616]
O=C(Nc1cccc(-c2ccc(C(F)(F)F)cn2)c1)N1c2nc(-c3cccc(C(F)(F)F)c3)ccc2N2CC[C@H]1C2 [Example 618]
O=C1CN2C[C@H]1N(C(=O)Nc1ccccn1)c1nc(-c3cccc(C(F)(F)F)c3)ccc12 [Example 620]
O=C(Nc1ccc2c(c1)CCC2)N1c2nc(-c3cccc(C(F)(F)F)c3)ccc2N2CC[C@H]1C2 [Example 624]

Tryp AVG EC1.5 (μM), C (C (EC1.5>25 μM)):
O=C(O[C@@H]1CN2C[C@H]1N(C(=O)Nc1ccccn1)c1nc(-c3cccc(C(F)(F)F)c3)ccc12)c1ccccc1 [Example 603]
O=C1OC2(c3ccc(O)cc3Oc3cc(O)ccc32)c2ccc(NC(=S)NCc3cn(C4=CC(NC(=O)N5c6nc(-c7cccc(C(F)(F)F)c7)ccc6N6CC[C@H]5C6)CC=C4)nn3)cc21 (stereo partly shown) [Example 608]
Cc1ccc(-c2cccc(NC(=O)N3c4nc(-c5cccc(C(F)(F)F)c5)ccc4N4CC[C@H]3C4)c2)cc1C [Example 619]
Cc1cc(C)n(N)c1CC1C=CC(CCC(=O)NCc2cn(-c3cccc(NC(=O)N4c5nc(-c6cccc(C(F)(F)F)c6)ccc5N5CC[C@H]4C5)c3)nn2)=N1 (stereo partly shown) [Example 622]

Same assay, conditions: Trp mass spectrometry assay; percent maximum fold activation of SIRT1; read-out: Tryp % Fold Act

Emax, > 150%:
O=C(CCCC[C@@H]1SC[C@@H]2NC(=O)N[C@@H]21)NCCCCCC(=O)NCc1cn(-c2cccc(NC(=O)N3c4nc(-c5cccc(C(F)(F)F)c5)ccc4N4CC[C@H]3C4)c2)nn1 [Example 607]

Emax, < 150%:
O=C1OC2(c3ccc(O)cc3Oc3cc(O)ccc32)c2ccc(NC(=S)NCc3cn(C4=CC(NC(=O)N5c6nc(-c7cccc(C(F)(F)F)c7)ccc6N6CC[C@H]5C6)CC=C4)nn3)cc21 (stereo partly shown) [Example 608]
Cc1cc(C)n(N)c1CC1C=CC(CCC(=O)NCc2cn(-c3cccc(NC(=O)N4c5nc(-c6cccc(C(F)(F)F)c6)ccc5N5CC[C@H]4C5)c3)nn2)=N1 (stereo partly shown) [Example 622]

Same assay, conditions: concentration giving 150% activation of SIRT1; Trp peptide substrate

Tryp AVG EC1.5 (μM), A (A (EC1.5<1 μM)):
O=C(Nc1cccc(-c2ccccc2)c1)N1c2nc(-c3cccc(C(F)(F)F)c3)ccc2N2CC[C@H]1C2 [Example 625]
COC(=O)c1cccc(NC(=O)N2c3nc(-c4cccc(C(F)(F)F)c4)ccc3N3CC[C@H]2C3)c1 [Example 626]
O=C(Nc1cccc(CN2CCOCC2)c1)N1c2nc(-c3cccc(C(F)(F)F)c3)ccc2N2CC[C@H]1C2 [Example 629]
O=C(Nc1cncc(F)c1)N1c2nc(-c3cccc(C(F)(F)F)c3)ccc2N2C[C@@H](O)[C@H]1C2 [Example 630]
CC(=O)N1CCC(c2cccc(NC(=O)N3c4nc(-c5cccc(C(F)(F)F)c5)ccc4N4CC[C@H]3C4)c2)C1 (stereo partly shown) [Example 635]
CCC(=O)N1CCC(c2cccc(NC(=O)N3c4nc(-c5cccc(C(F)(F)F)c5)ccc4N4CC[C@H]3C4)c2)C1 (stereo partly shown) [Example 636]
O=C(C1CC1)N1CCC(c2cccc(NC(=O)N3c4nc(-c5cccc(C(F)(F)F)c5)ccc4N4CC[C@H]3C4)c2)C1 (stereo partly shown) [Example 637]
CC(C)(C)OC(=O)NCc1cnnn1-c1cccc(NC(=O)N2c3nc(-c4cccc(C(F)(F)F)c4)ccc3N3CC[C@H]2C3)c1 [Example 638]
NCCCCCC(=O)NCc1cn(-c2cccc(NC(=O)N3c4nc(-c5cccc(C(F)(F)F)c5)ccc4N4CC[C@H]3C4)c2)nn1 [Example 639]

Tryp AVG EC1.5 (μM), B (B (EC1.5 1-25 μM)):
O=C(NCCCn1ccnc1)N1c2nc(-c3cccc(C(F)(F)F)c3)ccc2N2CC[C@H]1C2 [Example 627]
O=C(Nc1ccc(N2CCCCC2)cc1)N1c2nc(-c3cccc(C(F)(F)F)c3)ccc2N2CC[C@H]1C2 [Example 628]
O=C(Nc1cccnn1)N1c2nc(-c3cccc(C(F)(F)F)c3)ccc2N2C[C@@H](O)[C@H]1C2 [Example 631]
O=C(NCCCc1ccncc1)N1c2nc(-c3cccc(C(F)(F)F)c3)ccc2N2CC[C@H]1C2 [Example 633]

Tryp AVG EC1.5 (μM), C (C (EC1.5>25 μM)):
Cc1nccn1CCCNC(=O)N1c2nc(-c3cccc(C(F)(F)F)c3)ccc2N2CC[C@H]1C2 [Example 632]
CC(=O)O[C@H]1CN2C[C@H]1N(C(=O)Nc1ccccn1)c1nc(-c3cccc(C(F)(F)F)c3)ccc12 [Example 634]

Source: US9834558B2, “Substituted bridged urea analogs as sirtuin modulators” (GLAXOSMITHKLINE LLC, priority 2013, dated 2017)
